Source: patent US10597388B2, “Pyridazinone herbicides” (FMC CORPORATION, priority 2014, dated 2020)

Legend:
Assay in all cases: Test D controlled growth environment herbicide test, pre- and postemergence
Assay type in all cases: in vivo
[1] = tested on: bromegrass, downy (downy bromegrass, Bromus tectorum)
Method in brief: (§1)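 Rating is visual, 0–100 scale (100 = complete control), made against untreated plants 14–21 d after treatment in controlled growth conditions. Postemergence sprays went onto 1- to 4-leaf plants in peat medium; preemergence sprays onto silt loam after sowing; formulation included a surfactant.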

[2] = tested on: buckwheat, wild (wild buckwheat, Polygonum convolvulus)
Method in brief: as §1

[3] = tested on: canarygrass (Phalaris minor)
Method in brief: as §1

[4] = tested on: chamomile (scentless chamomile, Matricaria inodora)
Method in brief: as §1

[5] = tested on: chickweed (common chickweed, Stellaria media)
Method in brief: as §1

[6] = tested on: deadnettle (henbit deadnettle, Lamium amplexicaule)
Method in brief: as §1

[7] = tested on: field violet (Viola arvensis)
Method in brief: as §1

[8] = tested on: foxtail, green (green foxtail, Setaria viridis)
Method in brief: as §1

[9] = tested on: galium (catchweed bedstraw, Galium aparine)
Method in brief: as §1

[10] = tested on: lambsquarters (Chenopodium album)
Method in brief: as §1

[11] = tested on: oilseed rape (Brassica napus)
Method in brief: as §1

[12] = tested on: ryegrass, Italian (Italian ryegrass, Lolium multiflorum)
Method in brief: as §1

[13] = tested on: wheat, winter (winter wheat, Triticum aestivum)
Method in brief: as §1

[14] = tested on: windgrass (Apera spica-venti)
Method in brief: as §1

[15] = Postemergence, 31 g ai/ha, scale 0 to 100 (0 no effect, 100 complete control)
[16] = Postemergence, 125 g ai/ha, visual rating on scale 0 (no effect) to 100 (complete control), 14 to 21 d
[17] = Postemergence, 250 g ai/ha, scale 0 to 100 (0 no effect, 100 complete control)
[18] = Preemergence, 62 g ai/ha, scale 0 to 100 (0 no effect, 100 complete control)
[19] = Preemergence, 125 g ai/ha, scale 0 to 100 (0 no effect, 100 complete control)
[20] = Preemergence, 250 g ai/ha, scale 0 to 100, 0 no effect, 100 complete control
[21] = postemergence, 62 g ai/ha, scale 0 to 100, 0 no effect, 100 complete control

Structure (SMILES): Cc1nn(C)c(=O)c(-c2ccc(Br)c3ccccc23)c1O [Compound 75]
- Bromegrass, Downy plant response rating [1, 15]: 0
- Plant response rating, Bromegrass, Downy [1, 16]: 15
- Plant response rating, Bromegrass, Downy [1, 17]: 30
- Plant response rating (scale of 0 to 100), Bromegrass, Downy ([1]; Preemergence, 31 g ai/ha): 0
- Plant response rating, Bromegrass, Downy [1, 18]: 0
- Plant response rating, Bromegrass, Downy [1, 19]: 10
- Plant response rating, Bromegrass, Downy [1, 20]: 25
- Plant response rating, Bromegrass, Downy [1, 21]: 0
- Buckwheat, Wild plant response rating [2, 15]: 100
- Plant response rating, Buckwheat, Wild [2, 16]: 100
- Plant response rating, Buckwheat, Wild [2, 17]: 100
- Plant response rating (scale of 0 to 100), Buckwheat, Wild ([2]; Preemergence, 31 g ai/ha): 0
- Plant response rating, Buckwheat, Wild [2, 18]: 0
- Plant response rating, Buckwheat, Wild [2, 19]: 0
- Plant response rating, Buckwheat, Wild [2, 20]: 50
- Plant response rating, Buckwheat, Wild [2, 21]: 100
- Canarygrass plant response rating [3, 15]: 15
- Plant response rating, Canarygrass [3, 16]: 30
- Plant response rating, Canarygrass [3, 17]: 50
- Plant response rating (scale of 0 to 100), Canarygrass ([3]; Preemergence, 31 g ai/ha): 20
- Plant response rating, Canarygrass [3, 18]: 55
- Plant response rating, Canarygrass [3, 19]: 70
- Plant response rating, Canarygrass [3, 20]: 75
- Plant response rating, Canarygrass [3, 21]: 15
- Chamomile plant response rating [4, 15]: 80
- Plant response rating, Chamomile [4, 16]: 85
- Plant response rating, Chamomile [4, 17]: 100
- Plant response rating, Chamomile [4, 21]: 90
- Chickweed plant response rating [5, 15]: 100
- Plant response rating, Chickweed [5, 16]: 100
- Plant response rating, Chickweed [5, 17]: 100
- Plant response rating (scale of 0 to 100), Chickweed ([5]; Preemergence, 31 g ai/ha): 90
- Plant response rating, Chickweed [5, 18]: 100
- Plant response rating, Chickweed [5, 19]: 95
- Plant response rating, Chickweed [5, 20]: 100
- Plant response rating, Chickweed [5, 21]: 100
- Deadnettle plant response rating [6, 15]: 75
- Plant response rating, Deadnettle [6, 16]: 95
- Plant response rating, Deadnettle [6, 17]: 100
- Plant response rating (scale of 0 to 100), Deadnettle ([6]; Preemergence, 31 g ai/ha): 30
- Plant response rating, Deadnettle [6, 18]: 55
- Plant response rating, Deadnettle [6, 19]: 90
- Plant response rating, Deadnettle [6, 20]: 100
- Plant response rating, Deadnettle [6, 21]: 90
- Field Violet plant response rating [7, 15]: 95
- Plant response rating, Field Violet [7, 16]: 95
- Plant response rating, Field Violet [7, 17]: 100
- Plant response rating (scale of 0 to 100), Field Violet ([7]; Preemergence, 31 g ai/ha): 95
- Plant response rating, Field Violet [7, 18]: 100
- Plant response rating, Field Violet [7, 19]: 100
- Plant response rating, Field Violet [7, 20]: 100
- Plant response rating, Field Violet [7, 21]: 100
- Foxtail, Green plant response rating [8, 15]: 0
- Plant response rating, Foxtail, Green [8, 16]: 55
- Plant response rating, Foxtail, Green [8, 17]: 60
- Plant response rating (scale of 0 to 100), Foxtail, Green ([8]; Preemergence, 31 g ai/ha): 15
- Plant response rating, Foxtail, Green [8, 18]: 35
- Plant response rating, Foxtail, Green [8, 19]: 55
- Plant response rating, Foxtail, Green [8, 20]: 100
- Plant response rating, Foxtail, Green [8, 21]: 25
- Galium plant response rating [9, 15]: 90
- Plant response rating, Galium [9, 16]: 95
- Plant response rating, Galium [9, 17]: 100
- Plant response rating (scale of 0 to 100), Galium ([9]; Preemergence, 31 g ai/ha): 15
- Plant response rating, Galium [9, 18]: 50
- Plant response rating, Galium [9, 19]: 60
- Plant response rating, Galium [9, 20]: 80
- Plant response rating, Galium [9, 21]: 95
- Lambsquarters plant response rating [10, 15]: 100
- Plant response rating, Lambsquarters [10, 16]: 100
- Plant response rating, Lambsquarters [10, 17]: 100
- Plant response rating (scale of 0 to 100), Lambsquarters ([10]; Preemergence, 31 g ai/ha): 95
- Plant response rating, Lambsquarters [10, 18]: 95
- Plant response rating, Lambsquarters [10, 19]: 100
- Plant response rating, Lambsquarters [10, 20]: 100
- Plant response rating, Lambsquarters [10, 21]: 100
- Oilseed Rape plant response rating [11, 15]: 70
- Plant response rating, Oilseed Rape [11, 16]: 95
- Plant response rating, Oilseed Rape [11, 17]: 100
- Plant response rating (scale of 0 to 100), Oilseed Rape ([11]; Preemergence, 31 g ai/ha): 50
- Plant response rating, Oilseed Rape [11, 18]: 75
- Plant response rating, Oilseed Rape [11, 19]: 100
- Plant response rating, Oilseed Rape [11, 20]: 100
- Plant response rating, Oilseed Rape [11, 21]: 95
- Ryegrass, Italian plant response rating [12, 15]: 90
- Plant response rating, Ryegrass, Italian [12, 16]: 95
- Plant response rating, Ryegrass, Italian [12, 17]: 98
- Plant response rating (scale of 0 to 100), Ryegrass, Italian ([12]; Preemergence, 31 g ai/ha): 95
- Plant response rating, Ryegrass, Italian [12, 18]: 100
- Plant response rating, Ryegrass, Italian [12, 19]: 100
- Plant response rating, Ryegrass, Italian [12, 20]: 0
- Plant response rating, Ryegrass, Italian [12, 21]: 95
- Wheat, Winter plant response rating [13, 15]: 0
- Plant response rating, Wheat, Winter [13, 16]: 0
- Plant response rating, Wheat, Winter [13, 17]: 0
- Plant response rating (scale of 0 to 100), Wheat, Winter ([13]; Preemergence, 31 g ai/ha): 0
- Plant response rating, Wheat, Winter [13, 18]: 0
- Plant response rating, Wheat, Winter [13, 19]: 20
- Plant response rating, Wheat, Winter [13, 20]: 15
- Plant response rating, Wheat, Winter [13, 21]: 0
- Windgrass plant response rating [14, 15]: 10
- Plant response rating, Windgrass [14, 16]: 40
- Plant response rating, Windgrass [14, 17]: 65
- Plant response rating (scale of 0 to 100), Windgrass ([14]; Preemergence, 31 g ai/ha): 0
- Plant response rating, Windgrass [14, 18]: 15
- Plant response rating, Windgrass [14, 19]: 50
- Plant response rating, Windgrass [14, 20]: 85
- Plant response rating, Windgrass [14, 21]: 15
